From US10093627B2, “Tetrahydroquinoline derivatives and their use as Epac inhibitors” (Institut National de la Sante et de la Recherche Medicale …, priority 2012, dated 2018)

Assays:
Epac1 [1] = molecular target: T1, Epac1 (Homo sapiens, UniProt O95398); assay: Epac1 nucleotide exchange activity, multipoint (time-course) method, bGDP-loaded GST-Rap1A; assay type: biochemical; settings: 20 μM CE3F4, single dose; 2 μM compound 007; FIG. 1
T1 construct: Recombinant human Epac1 (residues 149-881), deleted of its Dishevelled, Egl-10, and Pleckstrin (DEP) domain; made in house
T1 sequence (O95398 149-881 isoform O95398-3): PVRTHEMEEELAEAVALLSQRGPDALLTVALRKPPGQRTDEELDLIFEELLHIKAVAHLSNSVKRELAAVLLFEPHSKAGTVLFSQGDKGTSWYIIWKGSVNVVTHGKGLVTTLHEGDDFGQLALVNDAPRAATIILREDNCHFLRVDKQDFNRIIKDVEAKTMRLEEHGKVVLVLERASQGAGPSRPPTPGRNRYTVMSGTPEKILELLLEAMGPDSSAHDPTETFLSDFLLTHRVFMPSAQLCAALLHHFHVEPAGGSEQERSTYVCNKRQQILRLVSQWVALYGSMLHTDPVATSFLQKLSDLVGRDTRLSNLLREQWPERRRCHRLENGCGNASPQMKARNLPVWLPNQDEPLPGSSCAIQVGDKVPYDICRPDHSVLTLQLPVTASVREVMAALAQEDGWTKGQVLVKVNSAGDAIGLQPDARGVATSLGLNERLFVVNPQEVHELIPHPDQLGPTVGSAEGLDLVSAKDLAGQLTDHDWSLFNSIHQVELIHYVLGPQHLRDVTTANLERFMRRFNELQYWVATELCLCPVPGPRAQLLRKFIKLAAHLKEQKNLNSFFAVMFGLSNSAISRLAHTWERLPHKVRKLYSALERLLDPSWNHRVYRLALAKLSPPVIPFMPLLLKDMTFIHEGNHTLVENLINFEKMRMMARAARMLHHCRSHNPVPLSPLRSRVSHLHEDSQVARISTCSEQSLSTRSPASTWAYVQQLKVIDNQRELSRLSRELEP
Experimental: Epac1 nucleotide exchange activity was measured: • in the absence of compound 007, • or in the presence of 2 μM of compound 007, either alone or with 25 μM of compound 009, • or with 20 μM of CE3F4.
Variations of RFU (Relative Fluorescence Units) were studied as a function of time and fitted to single exponentials. Reported values are mean±SEM (n=3). (see Materiel and Methods).
Concerning FIG. 1, a “multipoint” (time-course) method was used. All components except the agonist (007) were mixed in a well and the exchange activity of Epac1 was initiated by injection of the agonist. GST-Rapt was preloaded with a fluorescent derivative of GDP, and the Epac1-catalyzed nucleotide exchange was measured using a large excess of non-fluorescent GDP, by taking advantage of the spectroscopic difference between free and Rap1-bound fluorescently labeled GDP. The principle of the method is similar to that reported in particular by Van den Berghe et al. (1997; Oncogene 15, 845), except that Bodipy FL-labeled GDP (bGDP) was used here, rather than 2′,3′-bis(O)—N-methylanthraniloyl-GDP (mant-GDP). […]

Epac1 [2] = molecular target: T1, Epac1; assay: In vitro GEF activity (initial velocity of GDP exchange on Rap1A) of Epac1; assay type: biochemical
Experimental: Protein NCBI Reference Sequences for human Epac1 and Epac2 are NP_006096 and NP_008954, respectively. Recombinant human Epac1 (residues 149-881), deleted of its Dishevelled, Egl-10, and Pleckstrin (DEP) domain, and human Rap1A were produced with GST as a fusion tag (D. Courilleau et al., Identification of a tetrahydroquinoline analog as a pharmacological inhibitor of the cAMP-binding protein Epac, J. Biol. Chem. 287 (2012) 44192-44202).
In vitro GDP exchange catalyzed by Epac was measured using purified recombinant Epac isoforms and Rap1A loaded with Bodipy-GDP, as described in D. Courilleau, et al (above mentioned). The GEF activity of Epac proteins was initiated by injection of the agonist. Stock solutions of CE3F4 and its analogs (12 mM in 100% DMSO) were kept at −20° C. and were diluted in assay buffer (0.67% final DMSO concentration) just before use for GDP exchange assays. The release of Bodipy-GDP was measured in real time as the decay of fluorescence. A single exponential was fit to the time-course data using the Graphpad Prism program. The initial velocity (Vi) of GDP exchange on Rap1 was calculated as described in D. Courilleau et al.).
Data are expressed as mean±S.D. Differences in quantitative variables were examined by unpaired one- or two-tailed Student's t test. EC50 and IC50 values were computed according to a four-parameters dose-response model and compared on the basis of the extra sum-of square F test, using Graphpad Prism. Two-tailed Wilcoxon matched-pair signed rank tests were performed using GraphPad Prism.

Inhibition of the exchange reaction induced by Epac1 plus 007 (Epac1 [1]): inhibited the exchange reaction | Inhibition of GEF activity of Epac1 compared with Epac2(AB) or Epac2(B) (Epac1 [2]; 50 μM racemic CE3F4, agonist 50 μM 007 or 300 μM cAMP, FIG. 6A): much more inhibited | EC50 (Epac1 [2]; Epac1 GEF activity toward Rap1, Epac1 activated by 20 μM 007, mean of n=4 to 9 independent determinations): 10.7 µM | IC50 (Epac1 [2]; Epac1 activated by 300 μM cAMP): 11 µM | Antagonism of cAMP-activated Epac1 GEF activity (Epac1 [2]; compound 30 μM, 300 μM cAMP, FIG. 6C): stronger antagonist
Compound: CC1CCc2c(cc(Br)c(F)c2Br)N1C=O (racemic) [CE3F4]
